The source made the active and inactive calls.
Key:
[1] = biological target: 26S proteasome non-ATPase regulatory subunit 14 (Homo sapiens, UniProt O00487); assay: inhibition of proteasome subunit RPN11 – biochemical, fluorescence polarization, uHTS hits, confirmation (AID 602368); format: functional
[2] = biological target: 72 kDa type IV collagenase (Homo sapiens, UniProt P08253); assay: Dose Response validation of uHTS RPN11 inhibitor hits using a MMP-2 Fluorescence assay.; format: functional
Chain of 72 kDa type IV collagenase (P08253 whole entry): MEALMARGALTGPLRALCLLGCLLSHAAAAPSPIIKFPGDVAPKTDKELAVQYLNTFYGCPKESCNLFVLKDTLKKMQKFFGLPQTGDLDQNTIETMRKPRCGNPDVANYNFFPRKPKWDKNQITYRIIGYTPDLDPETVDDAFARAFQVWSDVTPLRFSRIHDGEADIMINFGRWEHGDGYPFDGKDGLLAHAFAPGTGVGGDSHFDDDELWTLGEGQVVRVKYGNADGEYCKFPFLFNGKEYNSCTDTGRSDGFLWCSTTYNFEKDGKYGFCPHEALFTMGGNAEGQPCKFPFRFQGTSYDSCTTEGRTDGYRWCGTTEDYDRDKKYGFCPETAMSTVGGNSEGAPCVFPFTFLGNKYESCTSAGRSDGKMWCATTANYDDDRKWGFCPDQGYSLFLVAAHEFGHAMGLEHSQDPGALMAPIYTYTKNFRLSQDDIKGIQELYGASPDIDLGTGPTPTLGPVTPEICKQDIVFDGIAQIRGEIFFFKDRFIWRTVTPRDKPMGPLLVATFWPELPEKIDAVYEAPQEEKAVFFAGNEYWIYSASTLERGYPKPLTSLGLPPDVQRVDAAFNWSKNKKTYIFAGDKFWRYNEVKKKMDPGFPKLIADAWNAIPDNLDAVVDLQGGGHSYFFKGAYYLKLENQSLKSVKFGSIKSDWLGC

Prothrombin = Prothrombin (Bos taurus, UniProt P00735); assay: thrombin protease inhibitors – biochemical, fluorescence polarization, uHTS hits, dose response (AID 602369); format: functional
Cytochrome P450 2C19 = Cytochrome P450 2C19 (Homo sapiens, UniProt P33261); assay: Cytochrome panel assay with activity outcomes. Panel member name: p450-cyp2c19 Compounds with AC50 equal or less than 10 uM are considered active; format: functional; settings: read-out: AC50
Chain of Cytochrome P450 2C19 (P33261 whole entry): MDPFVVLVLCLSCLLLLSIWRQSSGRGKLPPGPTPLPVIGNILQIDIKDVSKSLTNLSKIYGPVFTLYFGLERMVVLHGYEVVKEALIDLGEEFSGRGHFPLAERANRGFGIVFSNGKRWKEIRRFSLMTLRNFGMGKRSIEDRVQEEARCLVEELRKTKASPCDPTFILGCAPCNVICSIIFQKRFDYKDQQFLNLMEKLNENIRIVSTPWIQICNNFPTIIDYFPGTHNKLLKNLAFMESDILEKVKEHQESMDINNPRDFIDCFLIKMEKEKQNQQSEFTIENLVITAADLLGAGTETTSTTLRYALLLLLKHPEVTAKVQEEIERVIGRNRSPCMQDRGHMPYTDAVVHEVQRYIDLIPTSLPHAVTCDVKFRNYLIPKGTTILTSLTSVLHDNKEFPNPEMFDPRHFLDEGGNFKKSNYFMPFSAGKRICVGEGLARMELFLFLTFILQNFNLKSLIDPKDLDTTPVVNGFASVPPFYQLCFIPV

Cytochrome P450 2D6 = Cytochrome P450 2D6 (Homo sapiens, UniProt P10635);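 further: CYP2D6 member of a cytochrome P450 panel assay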
Chain of Cytochrome P450 2D6 (P10635 whole entry): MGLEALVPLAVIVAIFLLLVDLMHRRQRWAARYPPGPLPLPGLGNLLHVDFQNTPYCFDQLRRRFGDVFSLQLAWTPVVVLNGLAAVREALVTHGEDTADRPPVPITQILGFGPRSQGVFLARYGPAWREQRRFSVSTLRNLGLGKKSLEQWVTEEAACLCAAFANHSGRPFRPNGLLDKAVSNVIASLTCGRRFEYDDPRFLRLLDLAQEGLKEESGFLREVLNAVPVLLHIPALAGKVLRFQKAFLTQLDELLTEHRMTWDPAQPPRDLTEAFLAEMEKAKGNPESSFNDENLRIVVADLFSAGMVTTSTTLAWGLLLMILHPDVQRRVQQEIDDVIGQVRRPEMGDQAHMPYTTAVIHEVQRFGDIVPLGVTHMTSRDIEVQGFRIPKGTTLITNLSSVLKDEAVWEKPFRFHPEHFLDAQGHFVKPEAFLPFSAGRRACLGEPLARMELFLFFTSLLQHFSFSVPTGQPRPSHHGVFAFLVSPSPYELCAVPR

[3] = luciferase reporter signal suppression in cells – H4 neuroglioma cells, luminescence, dose response (AID 1990); format: functional, cell-based
[4] = Luminescence Cell-Based Dose Response HTS to Identify Inhibitors of 5'UTR Stem-Loop Driven Prion Protein mRNA Translation in H4 Neuroglioblastoma Cells. [Related pubchem assays: 1827 (Project Summary), 1813 (Primary HTS)]; format: functional
[5] = alpha-synuclein stem-loop luciferase translation blockers – H4 neuroglioma cells, luminescence, confirmation (AID 1988); format: functional, cell-based
[6] = HEK-293T cell viability reduction – luminescence, B-cell screen hits, cytotoxicity control for BCR NF-kB inhibitor project, dose response (AID 489021); format: functional, cell-based;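 further: HEK-293T cells carrying an NF-kB luciferase reporter; cells exposed to compound for about 14 hours before viability readout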
[7] = biological target: Luciferin 4-monooxygenase (Photinus pyralis, UniProt P08659); assay: inhibition of purified Photinus pyralis luciferase – biochemical, luminescence, dose response (AID 1891)
Chain of Luciferin 4-monooxygenase (P08659 whole entry): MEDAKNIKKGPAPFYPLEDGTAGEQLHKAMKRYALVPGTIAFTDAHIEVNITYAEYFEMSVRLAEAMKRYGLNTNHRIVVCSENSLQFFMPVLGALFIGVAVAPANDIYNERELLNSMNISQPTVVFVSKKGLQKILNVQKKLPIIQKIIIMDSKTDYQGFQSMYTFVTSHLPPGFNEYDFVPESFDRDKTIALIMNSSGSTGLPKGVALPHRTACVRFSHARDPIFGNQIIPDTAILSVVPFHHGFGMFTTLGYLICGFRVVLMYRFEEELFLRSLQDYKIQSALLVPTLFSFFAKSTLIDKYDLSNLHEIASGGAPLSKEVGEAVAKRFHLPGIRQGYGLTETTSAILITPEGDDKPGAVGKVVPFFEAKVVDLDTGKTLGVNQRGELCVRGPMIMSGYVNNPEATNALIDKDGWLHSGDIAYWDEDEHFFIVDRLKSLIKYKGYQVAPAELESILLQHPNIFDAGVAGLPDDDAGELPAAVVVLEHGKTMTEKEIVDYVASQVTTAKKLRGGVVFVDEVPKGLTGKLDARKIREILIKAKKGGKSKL

[8] = Luminescence Cell-Based Dose Confirmation HTS to Identify Inhibitors of Platelet Dense Granule Release. [Related pubchem assays: 1663 (Primary HTS), 1678 (Summary of Project)]; format: functional
Cytochrome P450 1A2 = biological target: T1, Cytochrome P450 1A2 (Homo sapiens, UniProt P05177);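 further: PubChem cytochrome P450 panel assay, CYP1A2 panel member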
T1 sequence (P05177 whole entry): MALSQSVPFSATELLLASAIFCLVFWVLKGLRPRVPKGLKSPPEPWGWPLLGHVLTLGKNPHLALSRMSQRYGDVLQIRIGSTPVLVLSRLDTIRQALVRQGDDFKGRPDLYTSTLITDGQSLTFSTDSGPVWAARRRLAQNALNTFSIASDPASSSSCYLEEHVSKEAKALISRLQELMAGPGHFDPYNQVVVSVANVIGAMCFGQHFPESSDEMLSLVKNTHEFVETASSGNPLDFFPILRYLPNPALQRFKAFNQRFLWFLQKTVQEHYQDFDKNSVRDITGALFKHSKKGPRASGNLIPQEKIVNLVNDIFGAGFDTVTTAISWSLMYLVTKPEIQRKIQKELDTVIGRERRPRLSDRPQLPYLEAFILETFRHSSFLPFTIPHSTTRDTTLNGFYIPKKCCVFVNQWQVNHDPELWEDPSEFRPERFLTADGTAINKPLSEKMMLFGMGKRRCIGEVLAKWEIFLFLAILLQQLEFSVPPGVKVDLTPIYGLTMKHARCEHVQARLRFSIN

[9] = biological target: T2, Microphthalmia-associated transcription factor (Homo sapiens, UniProt O75030); assay: reducers of TRPM1 reporter luminescence, concentration series – cell-based, SK-MEL-5, cherry-picked, set 3, MITF inhibitor project, dose response (AID 493073); format: functional;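 further: SK-MEL-5 melanoma cells with luciferase driven by the MITF target TRPM1 promoter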
T2 sequence (O75030 whole entry): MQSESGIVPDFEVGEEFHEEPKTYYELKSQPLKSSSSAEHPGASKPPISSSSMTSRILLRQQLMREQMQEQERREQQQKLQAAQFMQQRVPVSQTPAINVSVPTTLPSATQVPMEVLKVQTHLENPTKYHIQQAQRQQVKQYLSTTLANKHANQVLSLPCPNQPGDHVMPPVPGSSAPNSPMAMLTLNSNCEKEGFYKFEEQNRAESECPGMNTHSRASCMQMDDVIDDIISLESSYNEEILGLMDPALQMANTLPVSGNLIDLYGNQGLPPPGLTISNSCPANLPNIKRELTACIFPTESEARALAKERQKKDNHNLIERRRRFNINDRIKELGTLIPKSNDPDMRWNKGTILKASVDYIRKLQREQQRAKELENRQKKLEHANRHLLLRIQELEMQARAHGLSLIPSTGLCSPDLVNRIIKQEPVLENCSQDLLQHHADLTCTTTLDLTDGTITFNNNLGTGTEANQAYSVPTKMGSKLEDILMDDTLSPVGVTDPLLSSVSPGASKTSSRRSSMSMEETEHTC

[10] = NIH-3T3 fibroblast cytotoxicity, dose response, cytotoxicity control, cell-based, fluorescence, Alamar Blue, secondary assay (AID 2327); format: functional;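 further: NIH-3T3 mouse fibroblasts cultured with fluconazole at 8 µg/mL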
BJ [11] = assay: BJ-TERT fibroblast viability loss – cell-based, RAS-independent, luminescence, dose response (AID 1933); format: functional; settings: Homo sapiens
BJ [12] = assay: cells; format: functional, cell-based; settings: Homo sapiens
[13] = fluconazole-exposed Candida albicans growth modulators – fluorescence, retest, confirmation (AID 2467); format: functional, cell-based
[14] = biological target: T3, Serine/threonine-protein phosphatase (Candida dubliniensis (strain CD36 / CBS 7987 / NCPF 3949 / NRRLY-17841) (Yeast), UniProt B9W6M3); assay: blockers of CaCl2-induced CDRE-lacZ signaling – S. cerevisiae, luminescence, secondary, dose response (AID 2388); format: functional, cell-based;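 further: yeast reporter cells carrying a calcineurin-responsive lacZ construct stimulated with calcium chloride; luminescent beta-galactosidase reporter signal in whole cells rather than isolated phosphatase activity; potency for inhibition where a drop in reporter signal means calcineurin blockade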
T3 sequence (B9W6M3 whole entry): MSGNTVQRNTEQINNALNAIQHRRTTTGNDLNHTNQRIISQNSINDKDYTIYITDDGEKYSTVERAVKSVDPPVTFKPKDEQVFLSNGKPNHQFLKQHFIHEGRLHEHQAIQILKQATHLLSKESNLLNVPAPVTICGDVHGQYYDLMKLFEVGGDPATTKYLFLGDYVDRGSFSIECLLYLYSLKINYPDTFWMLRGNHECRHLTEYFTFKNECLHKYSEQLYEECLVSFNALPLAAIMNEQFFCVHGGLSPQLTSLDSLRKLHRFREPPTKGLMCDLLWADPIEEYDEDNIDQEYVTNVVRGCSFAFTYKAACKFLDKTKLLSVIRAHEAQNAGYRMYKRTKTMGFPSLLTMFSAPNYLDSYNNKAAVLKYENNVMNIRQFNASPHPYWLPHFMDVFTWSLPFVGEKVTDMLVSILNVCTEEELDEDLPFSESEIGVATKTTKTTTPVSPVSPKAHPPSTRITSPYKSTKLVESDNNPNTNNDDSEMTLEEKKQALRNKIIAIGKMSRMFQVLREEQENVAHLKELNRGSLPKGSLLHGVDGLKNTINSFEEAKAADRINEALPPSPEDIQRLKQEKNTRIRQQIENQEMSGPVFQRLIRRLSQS

BJ [15] = assay: BJ-TERT-LT-ST fibroblast viability loss – cell-based, RAS-independent, luminescence, dose response (AID 1935); format: functional; settings: Homo sapiens;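 further: BJ fibroblasts immortalized with TERT plus LT and ST oncogenes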
[16] = DRD fibroblast viability loss – cell-based, non-viral oncogenic, luminescence, dose response (AID 1934); format: functional; settings: Homo sapiens
Nonstructural protein 1 = Nonstructural protein 1 (Influenza A virus, UniProt Q194T2); format: functional, Influenza A virus (A/California/07/2009(H1N1))
Chain of Nonstructural protein 1 (Q194T2 whole entry): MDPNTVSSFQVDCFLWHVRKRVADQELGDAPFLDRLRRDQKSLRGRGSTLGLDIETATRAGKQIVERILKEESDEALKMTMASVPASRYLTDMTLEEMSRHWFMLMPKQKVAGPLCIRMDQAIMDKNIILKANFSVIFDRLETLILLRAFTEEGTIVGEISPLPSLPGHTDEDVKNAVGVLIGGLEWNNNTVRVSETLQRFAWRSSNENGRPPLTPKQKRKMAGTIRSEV

[17] = biological target: Heat shock protein HSP 90-alpha (Homo sapiens, UniProt P07900); format: functional, organism-based
BJ [18] = assay: growth inhibition of engineered Ras-driven BJ cells – cell-based, alamar blue fluorescence, cherrypicked samples, dose response (AID 2631); format: functional; settings: Homo sapiens;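 further: confirmatory dose-response assay in RAS-dependent BJ fibroblasts engineered with TERT, LT and ST, with cytotoxicity read by fluorescence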
[19] = biological target: ATP-dependent molecular chaperone HSP82 (Candida albicans (strain WO-1) (Yeast), UniProt C4YTQ8); assay: steroid-induced GRE reporter decrease in yeast – S. cerevisiae, luminescence, Hsp90 inhibitor project, dose response (AID 2400); format: functional, cell-based;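 further: beta-galactosidase luminescence from glucocorticoid response element reporter as proxy for Hsp90 function; inhibitor potency where signal loss means Hsp90 inhibition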
Chain of ATP-dependent molecular chaperone HSP82 (C4YTQ8 whole entry): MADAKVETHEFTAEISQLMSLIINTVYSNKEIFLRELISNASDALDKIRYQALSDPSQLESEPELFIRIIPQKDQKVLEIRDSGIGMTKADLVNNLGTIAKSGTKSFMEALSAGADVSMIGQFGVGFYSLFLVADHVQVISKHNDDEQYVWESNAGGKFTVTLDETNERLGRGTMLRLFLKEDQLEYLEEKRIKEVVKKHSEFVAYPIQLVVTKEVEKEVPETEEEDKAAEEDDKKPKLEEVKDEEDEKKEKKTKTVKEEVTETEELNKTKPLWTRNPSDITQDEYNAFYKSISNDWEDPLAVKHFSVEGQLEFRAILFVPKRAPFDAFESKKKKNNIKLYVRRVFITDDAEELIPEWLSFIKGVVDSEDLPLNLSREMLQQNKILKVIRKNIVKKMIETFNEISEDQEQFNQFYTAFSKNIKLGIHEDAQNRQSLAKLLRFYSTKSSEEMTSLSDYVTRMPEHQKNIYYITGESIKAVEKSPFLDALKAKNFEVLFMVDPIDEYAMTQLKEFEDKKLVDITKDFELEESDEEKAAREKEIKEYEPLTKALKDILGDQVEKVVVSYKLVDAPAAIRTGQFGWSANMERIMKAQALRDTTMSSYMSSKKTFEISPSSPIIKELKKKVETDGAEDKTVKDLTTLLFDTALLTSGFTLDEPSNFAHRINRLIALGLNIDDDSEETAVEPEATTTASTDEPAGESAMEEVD

Chain of 26S proteasome non-ATPase regulatory subunit 14 (O00487 whole entry): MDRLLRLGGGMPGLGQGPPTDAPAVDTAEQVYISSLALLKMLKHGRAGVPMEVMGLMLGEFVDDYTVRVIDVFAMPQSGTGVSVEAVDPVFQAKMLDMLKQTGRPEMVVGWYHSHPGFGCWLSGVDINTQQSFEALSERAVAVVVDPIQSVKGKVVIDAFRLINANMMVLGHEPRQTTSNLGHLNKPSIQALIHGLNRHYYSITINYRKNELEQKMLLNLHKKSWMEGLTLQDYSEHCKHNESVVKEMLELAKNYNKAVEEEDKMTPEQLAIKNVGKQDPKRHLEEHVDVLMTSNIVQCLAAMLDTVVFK

With `Cc1[nH]c2ccccc2c1/C=C/C(=O)c1ccncc1` the IC50 [1] was 38.8 µM (active), the IC50 [2] was > 100 µM (inactive) and the IC50 (Prothrombin) was 48.4 µM (active).
For `CC(=O)Nc1ccccc1C(=O)C(=O)O`, the AC50 (Cytochrome P450 2C19) was 10 µM (inconclusive) and the AC50 (Cytochrome P450 2D6) was “inconclusive”.
For `CCNc1nc(C)c2cc(Br)c(=O)n(CC)c2n1`, the EC50 [3] was 15.9 µM (active), the EC50 [4] was 7.96 µM (active) and the EC50 [5] was 11.5 µM (active). The IC50 [6] was > 80 µM (inactive).
For `COc1ccc(C(N)=O)cc1NC(=O)c1cccc(F)c1`, the EC50 [7] was > 112 µM (not active), the EC50 [8] was > 112 µM (not active) and the AC50 (Cytochrome P450 1A2) was 5.01 µM (inconclusive). The AC50 (Cytochrome P450 2D6) was “inconclusive”.
In the case of `COC(=O)[C@@]12OC[C@]34[C@H]([C@@H](O)[C@@H]1O)[C@@]1(C)C(=O)C(O[C@@H]5OC(CO)[C@@H](O)[C@@H](O)[C@@H]5O)=C[C@@H](C)[C@@H]1C[C@H]3OC(=O)[C@H](OC(=O)/C=C(\C)C(C)(C)OC(C)=O)[C@@H]24` (some centres not stated), the IC50 [6] is reported as > 80 µM (inactive).
With `O=S(=O)(c1cnc(Cl)c(Cl)c1)N1CCCc2ccccc21` the IC50 [6] was > 80 µM (inactive).
In the case of `C=CCn1c(C)cc(C2=NN=C(NC(C)(C)C)SC2)c1C`, the AC50 [9] is reported as 4.09 µM (active).
In the case of `O=Cc1ccc(O)c2ncccc12`, the EC50 [10] is reported as 16.1 µM (active), the EC50 (BJ [11]) is reported as 4.43 µM (active) and the EC50 (BJ [12]) is reported as 33.7 µM (active). The EC50 [13] was 0.333 µM (active), the EC50 [14] was 3.93 µM (active) and the EC50 (BJ [15]) was 21.1 µM (inconclusive). The EC50 [16] was 16.6 µM (active), the IC50 (Nonstructural protein 1) was 1.71 µM (active) and the AC50 [17] was 0.552 µM (active). The EC50 (BJ [18]) was 0.284 µM (active) and the EC50 [19] was 11.2 µM (active).

Reference: ChEMBL document CHEMBL1201862, “PubChem BioAssay data set” (2004)
